Legend:
[1] = target: T1, Peroxisome proliferator-activated receptor alpha (Homo sapiens) (UniProt Q07869); test: Binding affinity to human recombinant PPARalpha expressed in Escherichia coli at 10 uM for 16 hrs by spectrofluorimetric analysis relative to control
T1 sequence (whole entry): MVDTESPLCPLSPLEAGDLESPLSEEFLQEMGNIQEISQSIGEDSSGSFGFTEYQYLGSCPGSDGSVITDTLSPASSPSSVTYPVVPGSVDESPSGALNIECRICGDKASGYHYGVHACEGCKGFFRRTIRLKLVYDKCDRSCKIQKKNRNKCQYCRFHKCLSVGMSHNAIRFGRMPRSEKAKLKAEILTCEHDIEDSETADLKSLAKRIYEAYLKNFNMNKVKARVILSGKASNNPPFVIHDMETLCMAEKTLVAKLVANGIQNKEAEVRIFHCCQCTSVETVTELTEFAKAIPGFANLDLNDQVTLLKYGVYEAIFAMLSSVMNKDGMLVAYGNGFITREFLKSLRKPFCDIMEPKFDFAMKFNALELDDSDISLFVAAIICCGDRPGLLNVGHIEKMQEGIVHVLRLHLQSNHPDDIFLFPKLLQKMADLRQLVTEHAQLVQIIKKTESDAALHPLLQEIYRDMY

Mus musculus [2] = test: Hepatotoxicity in Sabra mouse assessed as ischemic changes at 1 mg/kg, ip administered on day 8, 9, 10, 11, 14, 18, 24 and 32 by hematoxylin and eosin staining-based histopathological analysis; format: toxicity, organism-based; parameters: dose 1 mg/kg, route intraperitoneal; conditions: in vivo
Hypothalamus [3] = test: Effect on POMC gene expression in Sabra mouse hypothalamus assessed as increase in mRNA level at 1 mg/kg, ip administered on day 6 to 10 measured on day 16 by RT-PCR analysis relative to control; format: functional; conditions: route intraperitoneal
Mus musculus [4] = test: Antiobesity activity in C57BL/6 mouse assessed as change in triglyceride level at 5 mg/kg, ip measured on day 36 (reference value: 0.92 mg/dL); format: functional; conditions: route intraperitoneal
Mus musculus [5] = test: Antiobesity activity in Sabra mouse assessed as change in body weight at 1 mg/kg, ip administered on day 8, 9, 10, 11, 14, 18, 24 and 32 measured on day 39 relative to control; format: functional; conditions: route intraperitoneal
Mus musculus [6] = test: Antiobesity activity in Sabra mouse assessed as reduction in body weight at 10 mg/kg, ip administered on day 6 to 10 measured on day 16 relative to control; format: functional; parameters: scale not given: the % may be the effect or the level left; conditions: route intraperitoneal
Mus musculus [7] = test: Hepatotoxicity in Sabra mouse assessed as inflammatory changes at 1 mg/kg, ip administered on day 8, 9, 10, 11, 14, 18, 24 and 32 by hematoxylin and eosin staining-based histopathological analysis; format: toxicity, organism-based; parameters: dose 1 mg/kg, route intraperitoneal; conditions: in vivo
[8] = target: T2, Fatty-acid amide hydrolase 1 (Rattus norvegicus) (UniProt P97612); test: Inhibition of rat brain FAAH using [3H]anandamide as substrate at 10 uM preincubated for 15 mins before substrate addition relative to control
T2 sequence (whole entry): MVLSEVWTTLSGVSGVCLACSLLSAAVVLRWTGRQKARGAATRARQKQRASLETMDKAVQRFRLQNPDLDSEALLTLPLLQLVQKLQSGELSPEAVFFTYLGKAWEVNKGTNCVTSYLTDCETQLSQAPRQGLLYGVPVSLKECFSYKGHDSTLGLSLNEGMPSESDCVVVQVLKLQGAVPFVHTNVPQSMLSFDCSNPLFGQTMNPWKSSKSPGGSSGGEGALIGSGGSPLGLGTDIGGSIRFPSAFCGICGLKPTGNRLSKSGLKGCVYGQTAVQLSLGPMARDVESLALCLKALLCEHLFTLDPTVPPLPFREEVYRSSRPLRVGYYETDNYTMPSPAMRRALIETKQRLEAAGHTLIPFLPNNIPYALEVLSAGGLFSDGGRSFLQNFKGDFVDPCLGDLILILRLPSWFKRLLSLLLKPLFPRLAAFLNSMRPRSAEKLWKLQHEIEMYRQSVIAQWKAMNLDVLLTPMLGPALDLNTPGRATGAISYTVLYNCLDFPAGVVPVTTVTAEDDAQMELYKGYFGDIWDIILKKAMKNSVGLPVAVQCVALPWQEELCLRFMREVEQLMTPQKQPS

Mus musculus [9] = test: Antiobesity activity in C57BL/6 mouse assessed as weight loss at 5 mg/kg, ip administered on day 1, 4, 5, 7, 17, 15, 19 measured on day 5 relative to control; format: functional; conditions: route intraperitoneal
Hypothalamus [10] = test: Effect on POMC gene expression in Sabra mouse hypothalamus assessed as change in mRNA level at 1 mg/kg, ip administered on day 8, 9, 10, 11, 14, 18, 24 and 32 by RT-PCR analysis relative to GAPDH; format: functional; conditions: route intraperitoneal
Mus musculus [11] = test: Antiobesity activity in Sabra mouse assessed as change in body weight at 1 mg/kg, ip administered on day 8, 12 and 43 measured on day 33 relative to control; format: functional; conditions: route intraperitoneal
Mus musculus [12] = test: Antiobesity activity in C57BL/6 mouse assessed as change in glucose level in blood at 5 mg/kg, ip administered on day 1, 4, 5, 7, 17, 15, 19 measured on day 3 relative to control; format: functional; conditions: route intraperitoneal
Mus musculus [13] = test: Antiobesity activity in Sabra mouse assessed as change in body weight at 1 mg/kg, ip administered on day 8, 12 and 43 measured on day 5 relative to control; format: functional; conditions: route intraperitoneal
Mus musculus [14] = test: Antiobesity activity in Sabra mouse assessed as change in body weight at 1 mg/kg, ip administered on day 8, 9, 10, 11, 14, 18, 24 and 32 measured on day 35 relative to control; format: functional; conditions: route intraperitoneal
Mus musculus [15] = test: Antiobesity activity in C57BL/6 mouse assessed as weight loss at 5 mg/kg, ip administered on day 1, 4, 5, 7, 17, 15, 19 measured on day 12 relative to control; format: functional; conditions: route intraperitoneal
Mus musculus [16] = test: Antiobesity activity in high fat diet fed C57BL/6 mouse assessed as reduction in body weight at 1 mg/kg, ip administered on day 3, 6, 8, 9, 10 measured on day 7 relative to control; format: functional; parameters: scale not given: the % may be the effect or the level left; conditions: route intraperitoneal
Mus musculus [17] = test: Antiobesity activity in C57BL/6 mouse assessed as weight loss at 5 mg/kg, ip administered on day 1, 4, 5, 7, 17, 15, 19 measured on day 11 relative to control; format: functional; conditions: route intraperitoneal
Mus musculus [18] = test: Antiobesity activity in Sabra mouse assessed as reduction in body weight at 1 mg/kg, ip administered on day 0, 10, 11, 12, 24, 29 measured on day 33 relative to control; format: functional; parameters: scale not given: the % may be the effect or the level left; conditions: route intraperitoneal
Mus musculus [19] = test: Antiobesity activity in high fat diet fed C57BL/6 mouse assessed as reduction food consumption at 1 mg/kg, ip administered on day 3, 6, 8, 9, 10 measured after week 2 relative to control; format: functional; parameters: scale not given: the % may be the effect or the level left; conditions: route intraperitoneal
Hypothalamus [20] = test: Effect on 5HT1A gene expression in Sabra mouse hypothalamus assessed as change in mRNA level at 1 mg/kg, ip administered on day 8, 9, 10, 11, 14, 18, 24 and 32 by RT-PCR analysis relative to GAPDH; format: functional; conditions: route intraperitoneal
[21] = target: Cannabinoid receptor 2 (Homo sapiens) (UniProt P34972); test: Displacement of [3H]WIN-55,212-2 from human recombinant CB2 receptor expressed in CHO-K1 cells at 10 uM relative to control; format: cell-based
Cannabinoid receptor 2 (Homo sapiens), sequence (P34972 whole entry): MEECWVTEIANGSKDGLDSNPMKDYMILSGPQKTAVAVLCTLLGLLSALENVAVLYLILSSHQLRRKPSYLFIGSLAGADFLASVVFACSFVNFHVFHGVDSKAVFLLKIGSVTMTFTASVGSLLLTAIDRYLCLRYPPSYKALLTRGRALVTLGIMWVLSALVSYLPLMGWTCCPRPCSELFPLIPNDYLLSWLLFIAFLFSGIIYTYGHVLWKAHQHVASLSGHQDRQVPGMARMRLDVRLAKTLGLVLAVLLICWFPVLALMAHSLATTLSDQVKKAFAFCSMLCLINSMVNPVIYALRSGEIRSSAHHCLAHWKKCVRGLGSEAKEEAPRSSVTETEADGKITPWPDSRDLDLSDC

CCCCCCCC/C=C\CCCCCCCC(=O)N[C@H](CO)C(C)C
Activity [1]: 2%
Activity (Mus musculus [2]): Non-toxic
Activity (Hypothalamus [3]): 50%
Activity (Mus musculus [4]): 1.017 mg/dL
Activity (Mus musculus [5]): -6.4%
Activity (Mus musculus [6]): 6.4%
Activity (Mus musculus [7]): Non-toxic
inhibition [8]: 14%
Activity (Mus musculus [9]): -3.2%
Activity (Hypothalamus [10]): 36%
Activity (Mus musculus [11]): -5.2%
Activity (Mus musculus [12]): -2.7%
Activity (Mus musculus [13]): 1.8%
Activity (Mus musculus [14]): -6.2%
Activity (Mus musculus [15]): -5.6%
Activity (Mus musculus [16]): -3.2%
Activity (Mus musculus [17]): -3.2%
Activity (Mus musculus [18]): -4%
Activity (Mus musculus [19]): 45%
Activity (Hypothalamus [20]): -20%
inhibition [21]: 18%

— ChEMBL document CHEMBL2321853, “Novel acylethanolamide derivatives that modulate body weight through enhancement of hypothalamic pro-opiomelanocortin (POMC) and/or decreased neuropeptide Y (NPY)” (J Med Chem, 2013)
